molecular target: MAPK14 (human) (UniProt Q16539); assay: Inhibition of MAPK14 Kinase Activity
Sequence (Q16539 whole entry, looked up): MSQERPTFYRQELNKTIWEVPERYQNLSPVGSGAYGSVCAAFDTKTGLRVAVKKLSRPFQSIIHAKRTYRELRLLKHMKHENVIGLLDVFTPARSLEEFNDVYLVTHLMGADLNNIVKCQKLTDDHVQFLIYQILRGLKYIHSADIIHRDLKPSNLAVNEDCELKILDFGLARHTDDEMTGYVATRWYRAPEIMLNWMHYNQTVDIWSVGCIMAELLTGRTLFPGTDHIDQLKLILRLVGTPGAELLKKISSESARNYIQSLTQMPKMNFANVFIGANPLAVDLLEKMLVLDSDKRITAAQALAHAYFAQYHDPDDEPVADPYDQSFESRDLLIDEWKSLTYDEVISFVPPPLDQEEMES

| SMILES | IC50 [µM] |
| --- | --- |
| O=C1CCC(Oc2ccccc2F)CN1c1c(Cl)cncc1Cl (stereo not given) | ≤ 20 |
| O=C1CCC(Sc2ccc(Cl)cc2Cl)CN1c1c(Cl)cccc1Cl (stereo not given) | ≤ 10 |
| O=C1CCC(Cc2ccccc2Cl)CN1c1c(Cl)cccc1Cl (stereo not given) | ≤ 10 |
| COc1ccccc1CC1CCC(=O)N(c2c(Cl)cccc2Cl)C1 (stereo not given) | ≤ 10 |
| CN(C)CCNC(=O)c1cc(Cl)c(N2CC(Cc3ccc(F)cc3F)CCC2=O)c(Cl)c1 (stereo not given) | ≤ 10 |
| O=C1CCC(Cc2ccccc2)CN1c1c(Cl)cccc1Cl (stereo not given) | ≤ 10 |
| Cc1cc(C(=O)N(C)C)cc(C)c1N1CC(Cc2ccc(F)cc2F)CCC1=O (stereo not given) | ≤ 10 |
| COC(=O)/C=C/c1ccccc1CC1CCC(=O)N(c2c(Cl)cccc2Cl)C1 (stereo not given) | ≤ 10 |
| COC(=O)c1cc(Cl)c(N2CC(Cc3ccc(F)cc3F)CCC2=O)c(Cl)c1 (stereo not given) | ≤ 10 |
| Cc1ccccc1CC1CCC(=O)N(C2C(Cl)CCCC2Cl)C1 (stereo not given) | ≤ 10 |
| CN1CCN(C(=O)CNc2cc(Cl)c(N3CC(Cc4ccc(F)cc4F)CCC3=O)c(Cl)c2)CC1 (stereo not given) | ≤ 10 |
| NC(=O)/C=C/c1cc(Cl)c(N2CC(Cc3ccc(F)cc3F)CCC2=O)c(Cl)c1 (stereo not given) | ≤ 10 |
| O=C1CSC(Cc2ccc(F)cc2)CN1c1c(Cl)cccc1Cl (stereo not given) | ≤ 10 |
| CC(=O)Nc1cnc(Cl)c(N2CC(Sc3ccc(F)cc3F)CCC2=O)c1Cl (stereo not given) | ≤ 10 |
| O=C1CCC(Cc2ccc(F)cc2F)CN1c1c(Cl)cnc(CO)c1Cl (stereo not given) | ≤ 10 |
| Cc1cc(C)cc(SC2CCC(=O)N(c3c(Cl)cncc3Cl)C2)c1 (stereo not given) | ≤ 10 |
| Cc1nc[nH]c1CNc1cc(Cl)c(N2CC(Cc3ccccc3)CCC2=O)c(Cl)c1 (stereo not given) | ≤ 10 |
| O=C1NCC(Cc2cc(Cl)cc(Cl)c2)CN1c1c(Cl)cccc1Cl (stereo not given) | ≤ 10 |
| CC(C)(C)OC(=O)Nc1ccc(Cl)c(N2CC(Cc3ccc(F)cc3F)CCC2=O)c1 (stereo not given) | ≤ 10 |
| Cc1cc(C#CCCOC2CCCCO2)cc(C)c1N1CC(Cc2ccc(F)cc2F)CCC1=O (stereo not given) | ≤ 10 |
| C[C@@H]1C[C@@H](Cc2ccc(F)cc2F)CN(c2c(Cl)cccc2Cl)C1=O | ≤ 10 |
| CNc1ccc(Cl)c(N2CC(Cc3ccc(F)cc3F)CN(C)C2=O)c1Cl (stereo not given) | ≤ 10 |
| Cc1cc(C)cc(SC2CCC(=O)N(C3C(Cl)CCCC3Cl)C2)c1 (stereo not given) | ≤ 10 |
| Cc1ccc(CC2CNC(=O)N(c3c(Cl)cccc3Cl)C2)cc1 (stereo not given) | ≤ 10 |
| Cc1cc(NC(=O)OC(C)(C)C)cc(C)c1N1CC(Cc2ccc(F)cc2F)CCC1=O (stereo not given) | ≤ 10 |

More lines, now with the values ahead:

| IC50 [µM] | SMILES |
| --- | --- |
| ≤ 10 | CC(=O)N1CC(=O)N(c2c(Cl)cccc2Cl)CC1Cc1ccc(F)cc1F (stereo not given) |
| ≤ 10 | O=C1CCC(Cc2ccc(F)cc2F)CN1c1c(Cl)ccc(O)c1Cl (stereo not given) |
| ≤ 10 | O=C1CCC(Cc2ccc(F)cc2F)CN1c1c(Cl)cc(NCCn2ccnc2)cc1Cl (stereo not given) |
| ≤ 10 | C[C@@H]1C[C@H](Cc2ccc(F)cc2F)CN(c2c(Cl)cccc2Cl)C1=O |
| ≤ 10 | Nc1cc(Cl)c(N2CC(Cc3ccc(F)cc3F)CCC2=O)c(Cl)c1 (stereo not given) |
| ≤ 10 | Nc1cc(Cl)c(N2CC(Cc3ccc(F)cc3F)CCC2=O)c(Cl)n1 (stereo not given) |
| ≤ 10 | COc1ccccc1OC1CCC(=O)N(c2c(Cl)cncc2Cl)C1 (stereo not given) |
| ≤ 10 | O=C1CCC(Oc2ccc(Cl)cc2Cl)CN1C1C(Cl)CCCC1Cl (stereo not given) |
| ≤ 10 | O=C1CCC(Oc2cc(F)cc(F)c2)CN1c1c(Cl)cccc1Cl (stereo not given) |
| ≤ 10 | O=C1COC(Cc2ccccc2F)CN1c1c(Cl)cccc1Cl (stereo not given) |
| ≤ 10 | O=C1SCC(Cc2ccc(Cl)cc2Cl)CN1c1c(Cl)cccc1Cl (stereo not given) |
| ≤ 10 | CC(=O)Nc1cc(Cl)c(N2CC(Sc3ccc(F)cc3F)CCC2=O)c(Cl)n1 (stereo not given) |
| ≤ 10 | COc1ccccc1CC1CN(c2c(Cl)cccc2Cl)C(=O)CO1 (stereo not given) |
| ≤ 10 | Cc1ccccc1OC1CCC(=O)N(C2C(Cl)CCCC2Cl)C1 (stereo not given) |
| ≤ 10 | CCNC(=O)Nc1cc(Cl)c(N2CC(Cc3ccc(F)cc3F)CCC2=O)c(Cl)c1 (stereo not given) |
| ≤ 10 | O=C1CCC(Oc2ccccc2F)CN1c1c(Cl)cccc1Cl (stereo not given) |
| ≤ 10 | O=C1CCC(Oc2ccccc2Cl)CN1c1c(Cl)ccnc1Cl (stereo not given) |
| ≤ 10 | CCN(CC)CCNc1cc(Cl)c(N2CC(Cc3ccc(F)cc3F)CCC2=O)c(Cl)c1 (stereo not given) |
| ≤ 10 | COc1ccc(CC2CN(c3c(Cl)cccc3Cl)C(=O)CS2)cc1 (stereo not given) |
| ≤ 10 | O=C1CCC(Cc2ccccc2F)CN1c1c(Cl)cncc1Cl (stereo not given) |
| ≤ 10 | O=C1CCC(Oc2ccc(F)cc2F)CN1C1C(Cl)CCC(O)C1Cl (stereo not given) |
| ≤ 10 | O=C(Cc1ccccc1)Nc1cc(Cl)c(N2CC(Cc3ccc(F)cc3F)CNC2=O)c(Cl)c1 (stereo not given) |
| ≤ 10 | Nc1cc(Cl)c(N2CC(Oc3ccc(F)cc3F)CCC2=O)c(Cl)n1 (stereo not given) |
| ≤ 10 | O=C1OCC(Cc2ccc(Cl)cc2)CN1c1c(Cl)cccc1Cl (stereo not given) |
| ≤ 10 | O=C1CCC(Cc2cccc3ccccc23)CN1c1c(Cl)cccc1Cl (stereo not given) |
| ≤ 10 | Cc1ccccc1SC1CCC(=O)N(c2c(Cl)csc2Cl)C1 (stereo not given) |
| ≤ 10 | CC(C)(C)OC(=O)N(CC(N)=O)c1cc(Cl)c(N2CC(Cc3ccc(F)cc3F)CCC2=O)c(Cl)c1 (stereo not given) |
| ≤ 10 | Cc1cccc(C)c1N1C[C@H](Cc2ccc(F)cc2F)C[C@@H](C)C1=O |
| ≤ 10 | O=C1CCC(Cc2ccc(F)cc2F)CN1c1nccs1 (stereo not given) |
| ≤ 10 | Cc1cccc(C)c1N1CC(Cc2ccccc2Br)CCC1=O (stereo not given) |

From the Kinase Knowledgebase extract (Sharma et al. 2016)
